According to patent US20240270750A1, “IMIDAZOLE-CONTAINING INHIBITORS OF ALK2 KINASE” (BioCryst Pharmaceuticals, Inc., priority 2021, published 2024):
Counter-ions that a name gives are not always drawn.

Biological target: T1, ALK2 (Homo sapiens, UniProt Q04771)
T1 construct: purchased ThermoFisher Scientific (Life Technologies)
T1 sequence (Q04771 21-509): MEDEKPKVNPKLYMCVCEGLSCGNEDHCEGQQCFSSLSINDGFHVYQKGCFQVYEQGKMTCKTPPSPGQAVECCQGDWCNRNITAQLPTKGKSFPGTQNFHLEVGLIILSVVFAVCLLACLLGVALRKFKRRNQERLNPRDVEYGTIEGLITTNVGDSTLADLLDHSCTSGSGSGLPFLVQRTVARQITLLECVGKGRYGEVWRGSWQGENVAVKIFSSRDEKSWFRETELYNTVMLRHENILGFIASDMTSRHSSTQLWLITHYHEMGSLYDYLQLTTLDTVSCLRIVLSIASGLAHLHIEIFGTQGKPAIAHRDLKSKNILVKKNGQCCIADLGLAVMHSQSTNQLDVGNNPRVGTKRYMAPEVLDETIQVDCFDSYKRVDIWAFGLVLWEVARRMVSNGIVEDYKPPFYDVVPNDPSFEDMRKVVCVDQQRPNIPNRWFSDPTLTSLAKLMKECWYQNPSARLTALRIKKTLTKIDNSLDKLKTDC
Experiment: LanthaScreen Eu Kinase Binding Assay, ALK2 inhibition
Settings: 1 micromolar concentration
Description: Biochemical assays to measure the inhibitory effects of the compounds were performed by ThermoFisher Scientific (Life Technologies). ALK2 inhibition was tested using LanthaScreen™ Eu Kinase Binding Assay screening protocol.

Structure (SMILES) | inhibition at 1 µM [%]
COc1cc(-n2cnc(Nc3nc(CC4CC4)nc4c3cnn4CC3CC3)c2)cc(OC)c1OC [Compound 121f, 1,6-bis(cyclopropylmethyl)-N-(1-(3,4,5-trimethoxyphenyl)-1H-imidazol-4-yl)-1H-pyrazolo[3,4-d]pyrimidin-4-amine] | > 50
CC[C@H](C)n1ncc2c(Nc3cn(-c4cc(OC)c(OC)c(OC)c4)cn3)nc(C(C)C)nc21 (single isomer, unassigned) [Compound 22d] | > 50
C=C(C)c1nc(Nc2cn(-c3cc(OC)c(OC)c(OC)c3)cn2)nc2ccsc12 [Compound 53c, 4-(prop-1-en-2-yl)-N-(1-(3,4,5-trimethoxyphenyl)-1H-imidazol-4-yl)thieno[3,2-d]pyrimidin-2-amine] | > 50
C=C(C)c1nc(Nc2cn(-c3cc(OC)c(OC)c(OC)c3)cn2)c2scc(C)c2n1 [Compound 92c, 7-methyl-2-(prop-1-en-2-yl)-N-(1-(3,4,5-trimethoxyphenyl)-1H-imidazol-4-yl)thieno[3,2-d]pyrimidin-4-amine] | > 50
COc1cc(-n2cnc(Nc3nc(C4CC4)nc4c(C(C)C)cnn34)c2)cc(OC)c1OC [Compound 111d, 2-cyclopropyl-8-isopropyl-N-(1-(3,4,5-trimethoxyphenyl)-1H-imidazol-4-yl)pyrazolo[1,5-a][1,3,5]triazin-4-amine] | > 50
CC[C@@H](C)n1ncc2c(Nc3cn(-c4cc(OC)c(OC)c(OC)c4)cn3)nc(C(C)C)nc21 (single isomer, unassigned) [Compound 19d] | > 50
COc1cc(-n2cnc(Nc3nc(C(F)(F)F)nc4c3cnn4C(C)C)c2)cc(OC)c1OC [Compound 26a, 1-isopropyl-6-(trifluoromethyl)-N-(1-(3,4,5-trimethoxyphenyl)-1H-imidazol-4-yl)-1H-pyrazolo[3,4-d]pyrimidin-4-amine] | > 50
C=C(C)c1nc(Nc2cn(-c3cc(OC)c(OC)c(OC)c3)cn2)c2cc(OC)c(OC)cc2n1 [Compound 65c, 6,7-dimethoxy-2-(prop-1-en-2-yl)-N-(1-(3,4,5-trimethoxyphenyl)-1H-imidazol-4-yl)quinazolin-4-amine] | < 50
COc1cc(-n2cnc(Nc3nc(C4CC4)nc4c3CCC4)c2)cc(OC)c1OC [Compound 115b, 2-cyclopropyl-N-(1-(3,4,5-trimethoxyphenyl)-1H-imidazol-4-yl)-6,7-dihydro-5H-cyclopenta[d]pyrimidin-4-amine] | > 50
COc1cc(-n2cnc(Nc3nc(C(C)C)nc4c3cnn4C3CCCC3)c2)cc(OC)c1OC [Compound 18c, 1-cyclopentyl-6-isopropyl-N-(1-(3,4,5-trimethoxyphenyl)-1H-imidazol-4-yl)-1H-pyrazolo[3,4-d]pyrimidin-4-amine] | > 50
COc1cc(-n2cnc(Nc3nc(C=C(C)C)nc4c3cnn4C(C)C)c2)cc(OC)c1OC [Compound 5b, 1-isopropyl-6-(2-methylprop-1-en-1-yl)-N-(1-(3,4,5-trimethoxyphenyl)-1H-imidazol-4-yl)-1H-pyrazolo[3,4-d]pyrimidin-4-amine] | > 50
COc1cc(-n2cnc(Nc3nc(C(C)C)nc4ccsc34)c2)cc(OC)c1OC [Compound 52b, 2-isopropyl-N-(1-(3,4,5-trimethoxyphenyl)-1H-imidazol-4-yl)thieno[3,2-d]pyrimidin-4-amine hydrochloride] | > 50
COc1cc(-n2cnc(Nc3nc(C4CC(O)C4)nc4c3cnn4C(C)C)c2)cc(OC)c1OC (stereo not shown) [Compound 58a, 3-(1-isopropyl-4-((1-(3,4,5-trimethoxyphenyl)-1H-imidazol-4-yl)amino)-1H-pyrazolo[3,4-d]pyrimidin-6-yl)cyclobutanol] | > 50
C=C(C)c1nc(Nc2cn(-c3cc(OC)c(OC)c(OC)c3)cn2)c2cccn2n1 [Compound 61c, 2-(prop-1-en-2-yl)-N-(1-(3,4,5-trimethoxyphenyl)-1H-imidazol-4-yl)pyrrolo[2,1-f][1,2,4]triazin-4-amine] | > 50
COc1cc(-n2cnc(Nc3nc(C(C)C)nc4c3ccn4C(C)C)c2)cc(OC)c1OC [Compound 98a, 2,7-diisopropyl-N-(1-(3,4,5-trimethoxyphenyl)-1H-imidazol-4-yl)-7H-pyrrolo[2,3-d]pyrimidin-4-amine] | > 50
COc1cc(-n2cnc(Nc3nc(CC(C)C)nc4c3cnn4C(C)C)c2)cc(OC)c1OC [Compound 6a, 6-isobutyl-1-isopropyl-N-(1-(3,4,5-trimethoxyphenyl)-1H-imidazol-4-yl)-1H-pyrazolo[3,4-d]pyrimidin-4-amine] | > 50

Structure (SMILES) | inhibition at 1 µM [%]
CCCCCC(C)c1nc(Nc2cn(-c3cc(OC)c(OC)c(OC)c3)cn2)c2cnn(C(C)C)c2n1 (stereo not shown) [Compound 59e, 6-(heptan-2-yl)-1-isopropyl-N-(1-(3,4,5-trimethoxyphenyl)-1H-imidazol-4-yl)-1H-pyrazolo[3,4-d]pyrimidin-4-amine] | > 50
COc1cc(-n2cnc(Nc3nc(C(C)CCN(C)C)nc4c3cnn4C(C)C)c2)cc(OC)c1OC (stereo not shown) [Compound 100b, 6-(4-(dimethylamino)butan-2-yl)-1-isopropyl-N-(1-(3,4,5-trimethoxyphenyl)-1H-imidazol-4-yl)-1H-pyrazolo[3,4-d]pyrimidin-4-amine] | > 50
CNCCC(C)c1nc(Nc2cn(-c3cc(OC)c(OC)c(OC)c3)cn2)c2cnn(C(C)C)c2n1 (stereo not shown) [Compound 50a, 1-isopropyl-6-(4-(methylamino)butan-2-yl)-N-(1-(3,4,5-trimethoxyphenyl)-1H-imidazol-4-yl)-1H-pyrazolo[3,4-d]pyrimidin-4-amine] | > 50
CCn1ncc2c(Nc3cn(-c4cc(OC)c(OC)c(OC)c4)cn3)nc(C(C)C)nc21 [Compound 23c, 1-ethyl-6-isopropyl-N-(1-(3,4,5-trimethoxyphenyl)-1H-imidazol-4-yl)-1H-pyrazolo[3,4-d]pyrimidin-4-amine] | > 50
COc1cc(-n2cnc(Nc3nc(C(C)C)nc4ccccc34)c2)cc(OC)c1OC [Compound 73a, 2-isopropyl-N-(1-(3,4,5-trimethoxyphenyl)-1H-imidazol-4-yl)quinazolin-4-amine] | > 50
COCCc1nc(Nc2cn(-c3cc(OC)c(OC)c(OC)c3)cn2)c2cnn(C(C)C)c2n1 [Compound 30e, 1-isopropyl-6-(2-methoxyethyl)-N-(1-(3,4,5-trimethoxyphenyl)-1H-imidazol-4-yl)-1H-pyrazolo[3,4-d]pyrimidin-4-amine] | > 50
COc1cc(-n2cnc(Nc3nc(CC(C)C)nc4c3CCC4)c2)cc(OC)c1OC [Compound 127b, 2-isobutyl-N-(1-(3,4,5-trimethoxyphenyl)-1H-imidazol-4-yl)-6,7-dihydro-5H-cyclopenta[d]pyrimidin-4-amine] | > 50
C=Cc1nc(Nc2cn(-c3cc(OC)c(OC)c(OC)c3)cn2)c2cnn(C(C)C)c2n1 [Compound 104a, 1-isopropyl-N-(1-(3,4,5-trimethoxyphenyl)-1H-imidazol-4-yl)-6-vinyl-1H-pyrazolo[3,4-d]pyrimidin-4-amine] | > 50
COc1cc(-n2cnc(Nc3nc(C(F)(F)F)nc4[nH]ncc34)c2)cc(OC)c1OC [Compound 25b, 6-(trifluoromethyl)-N-(1-(3,4,5-trimethoxyphenyl)-1H-imidazol-4-yl)-1H-pyrazolo[3,4-d]pyrimidin-4-amine] | > 50
COc1cc(-n2cnc(Nc3nc(C(C)C)nc4c3cnn4CC3CC3)c2)cc(OC)c1OC [Compound 17c, 1-(cyclopropylmethyl)-6-isopropyl-N-(1-(3,4,5-trimethoxyphenyl)-1H-imidazol-4-yl)-1H-pyrazolo[3,4-d]pyrimidin-4-amine] | > 50
COc1cc(-n2cnc(Nc3nc(C4CC(F)(F)C4)nc4c3cnn4C(C)C)c2)cc(OC)c1OC [Compound 28e, 6-(3,3-difluorocyclobutyl)-1-isopropyl-N-(1-(3,4,5-trimethoxyphenyl)-1H-imidazol-4-yl)-1H-pyrazolo[3,4-d]pyrimidin-4-amine] | > 50
COc1cc(-n2cnc(Nc3nc(C(C)CC(=O)NCCO)nc4c3cnn4C(C)C)c2)cc(OC)c1OC (stereo not shown) [Compound 109a, N-(2-hydroxyethyl)-3-(1-isopropyl-4-((1-(3,4,5-trimethoxyphenyl)-1H-imidazol-4-yl)amino)-1H-pyrazolo[3,4-d]pyrimidin-6-yl)butanamide] | < 50
COc1cc(-n2cnc(Nc3nc(C(C)C)nc4c3cnn4-c3ccc(F)cc3F)c2)cc(OC)c1OC [Compound 42d, 1-(2,4-difluorophenyl)-6-isopropyl-N-(1-(3,4,5-trimethoxyphenyl)-1H-imidazol-4-yl)-1H-pyrazolo[3,4-d]pyrimidin-4-amine] | > 50
COc1cc(-n2cnc(Nc3nc(C4CC(OCc5ccccc5)C4)nc4c3cnn4C(C)C)c2)cc(OC)c1OC (stereo not shown) [Compound 57e, 6-(3-(benzyloxy)cyclobutyl)-1-isopropyl-N-(1-(3,4,5-trimethoxyphenyl)-1H-imidazol-4-yl)-1H-pyrazolo[3,4-d]pyrimidin-4-amine] | > 50
COc1cc(-n2cnc(Nc3nc(C)nc4c3cnn4C(C)C)c2)cc(OC)c1OC [Compound 31b, 1-isopropyl-6-methyl-N-(1-(3,4,5-trimethoxyphenyl)-1H-imidazol-4-yl)-1H-pyrazolo[3,4-d]pyrimidin-4-amine] | > 50
